Test results as given in article PMC12133982, “Predominant T-cell epitopes of SARS-CoV-2 restricted by multiple prevalent HLA-B and HLA-C allotypes in Northeast Asia” (Frontiers in Immunology, 2025).
Peptide text beside a SMILES is read from it.

Assays:
[1] = target: HLA-C0602 (Homo sapiens, UniProt P10321, A176E/A330V/C350S/L171W/L180W/L218V/M285V/M309V/M331V/N104K/P208H/Q277E/Q291P/R121W/S101N/S123Y/S297R/T329A/T363A/V319A/V328M); test: Competitive peptide binding assay, CIR-C0602
[2] = target: HLA-C0702 (Homo sapiens, UniProt P10321); test: Competitive peptide binding assay, CIR-C0702
[3] = target: HLA-B5801 (Homo sapiens, UniProt P01889, A329T/C349S/D201E/D98Y/E176V/E187L/E204Q/E69T/G107R/I218V/I90N/K202T/L105A/L119I/N104I/N87E/Q89R/Q94S/R106L/R155S/R180L/R86G/S101N/S121R/S35A/S48A/T118I/V127L/V306I/V36M/Y140S/Y91M); test: Competitive peptide binding assay, CIR-B5801; conditions: HMy2.CIR-B5801 cells, reference Cy5-[…], class from inhibition at 5 and 15 μM, flow cytometry MFI; read-out: Binding affinity with HLA-B5801
Experimental: (§1) Then, competitive peptide binding assays were performed.

[4] = target: HLA-B1302 (Homo sapiens, UniProt P01889, A65T/A93T/A95T/D138N/D201E/D98Y/E176V/E204Q/E69M/E70A/G107R/K202T/L105A/L119W/N104T/N87E/Q94N/R106L/R155S/R169L/R180L/S101N/S121T/S35A/S48T/V127L/V36M/Y140L/Y91S); test: Competitive peptide binding assay, CIR-B1302; conditions: HMy2.CIR-B1302 cells, reference Cy5-MMWYWGPSL, class from inhibition at 5 and 15 μM, flow cytometry MFI; read-out: Binding affinity with HLA-B1302
Experimental: as §1

[5] = target: HLA-B1501 (Homo sapiens, UniProt P01889, A329T/A93T/A95T/C349S/D201E/D98Y/E187L/E204Q/E69M/E70A/K202T/N87E/Q94N/R155S/R180W/S121R/S35A/S48A/V306I/V36M/Y140S/Y91S); test: Competitive peptide binding assay, CIR-B1501; conditions: HMy2.CIR-B1501 cells, reference Cy5-[…], class from inhibition at 5 and 15 μM, flow cytometry MFI; read-out: Binding affinity with HLA-B1501
Experimental: as §1

[6] = target: HLA-B3501 (Homo sapiens, UniProt P01889, A329T/A93T/A95T/C349S/D201E/D98Y/E176V/E187L/E204Q/E69T/I218V/K202T/L119I/Q94N/R155S/R180L/S121R/S35A/S48A/T118I/V127L/V306I/V36M/Y140S/Y91F); test: Competitive peptide binding assay, CIR-B3501; conditions: HMy2.CIR-B3501 cells, reference Cy5-[…], class from inhibition at 5 and 15 μM, flow cytometry MFI; read-out: Binding affinity with HLA-B3501
Experimental: as §1

[7] = target: HLA-B4601 (Homo sapiens, UniProt P01889, A329T/A93R/C349S/D201E/E100V/E187L/E204Q/E69M/E70A/I90K/K202T/N87E/R155S/R180W/S121R/S35A/S48A/V306I/V36M/Y140S); test: Competitive peptide binding assay, CIR-B4601; conditions: for IC50: HMy2.CIR-B4601 cells, reference Cy5-[…], class from inhibition at 5 and 15 μM, flow cytometry MFI, read-out: Binding affinity with HLA-B4601; for inhibition at 5 µM: read-out: Inhibition % of Cy5-reference peptide binding, CIR-B4601, 5μM peptide; for inhibition at 15 µM: read-out: Inhibition % of Cy5-reference peptide binding, CIR-B4601, 15μM peptide
Experimental: as §1

[8] = target: HLA-B1502 (Homo sapiens, UniProt P01889, A329T/A93T/A95T/C349S/D201E/D98Y/E187L/E204Q/E69M/E70A/H137Y/K202T/L119I/Q94N/R155S/R180L/S121R/S35A/S48A/T118I/V306I/V36M/Y140S/Y91S); test: Competitive peptide binding assay, CIR-B1502; conditions: HMy2.CIR-B1502 cells, reference Cy5-[…], class from inhibition at 5 and 15 μM, flow cytometry MFI; read-out: Binding affinity with HLA-B1502
Experimental: as §1

[9] = target: HLA-B1301 (Homo sapiens, UniProt P01889, A65T/A93T/A95T/D138N/D201E/D98Y/E176V/E204Q/E69M/E70A/G107R/K202T/L105A/L119I/N104T/N87E/Q94N/R106L/R155S/R169L/R180L/S101N/S121R/S35A/S48T/T118I/V127L/V36M/Y140L/Y91S); test: Competitive peptide binding assay, CIR-B1301; conditions: HMy2.CIR-B1301 cells, reference Cy5-[…], class from inhibition at 5 and 15 μM, flow cytometry MFI; read-out: Binding affinity with HLA-B1301
Experimental: as §1

| SMILES | IC50 [1] | IC50 [2] | IC50 [3] | IC50 [4] | IC50 [5] | IC50 [6] | IC50 [7] | IC50 [8] | inhibition at 5 µM [7] | inhibition at 15 µM [7] | IC50 [9] |
| --- | --- | --- | --- | --- | --- | --- | --- | --- | --- | --- | --- |
| CC[C@H](C)[C@H](NC(=O)[C@@H]1CCCN1C(=O)[C@@H](NC(=O)[C@H](Cc1c[nH]cn1)NC(=O)[C@H](CCCCN)NC(=O)[C@H](CO)NC(=O)[C@@H](N)Cc1ccc(O)cc1)[C@@H](C)O)C(=O)N[C@@H](CC(N)=O)C(=O)N[C@@H](CC(C)C)C(=O)O [Epitope M127] (H-YSKHTPINL-OH; N-terminus and C-terminus assumed) | > 15 µM | > 15 µM | – | – | – | – | – | – | – | – | – |
| CC(C)C[C@H](N)C(=O)N1CCC[C@H]1C(=O)N[C@@H](CC(N)=O)C(=O)N[C@@H](CC(N)=O)C(=O)N[C@H](C(=O)N[C@@H](C)C(=O)N[C@@H](CO)C(=O)N[C@@H](Cc1c[nH]c2ccccc12)C(=O)N[C@@H](Cc1ccccc1)C(=O)O)[C@@H](C)O [Epitope Y17] (H-LPNNTASWF-OH; N-terminus and C-terminus assumed) | – | – | > 15 µM | > 15 µM | > 15 µM | < 5 µM | – | – | – | – | – |
| CSCC[C@H](NC(=O)[C@H](CO)NC(=O)[C@H](CCCNC(=N)N)NC(=O)[C@@H](NC(=O)[C@H](CCCNC(=N)N)NC(=O)[C@H](C)NC(=O)[C@@H](N)Cc1ccccc1)[C@@H](C)O)C(=O)N[C@@H](Cc1c[nH]c2ccccc12)C(=O)N[C@@H](CO)C(=O)N[C@@H](Cc1ccccc1)C(=O)O [Epitope Y47] (H-FARTRSMWSF-OH; N-terminus and C-terminus assumed) | – | – | > 15 µM | > 15 µM | – | < 5 µM | > 15 µM | < 5 µM | – | – | – |
| C[C@H](NC(=O)[C@H](Cc1ccc(O)cc1)NC(=O)[C@H](C)NC(=O)[C@@H](N)Cc1ccccc1)C(=O)N[C@@H](CC(N)=O)C(=O)N[C@@H](CCCNC(=N)N)C(=O)N[C@@H](CC(N)=O)C(=O)N[C@@H](CCCNC(=N)N)C(=O)N[C@@H](Cc1ccccc1)C(=O)O [Epitope Y49] (H-FAYANRNRF-OH; N-terminus and C-terminus assumed) | – | – | 5 to 15 µM | > 15 µM | > 15 µM | < 5 µM | – | – | – | – | – |
| CC[C@H](C)[C@H](NC(=O)[C@H](CO)NC(=O)[C@H](CCC(N)=O)NC(=O)[C@H](CO)NC(=O)[C@H](C)NC(=O)[C@@H](N)C(C)C)C(=O)N[C@H](C(=O)N[C@@H](C)C(=O)N[C@@H](Cc1ccc(O)cc1)C(=O)O)[C@@H](C)CC [Epitope Y151] (H-VASQSIIAY-OH; N-terminus and C-terminus assumed) | – | – | > 15 µM | < 5 µM | > 15 µM | < 5 µM | – | – | – | – | – |
| CC[C@H](C)[C@H](NC(=O)[C@H](CC(C)C)NC(=O)[C@@H](N)CCC(=O)O)C(=O)N[C@@H](CCCNC(=N)N)C(=O)N[C@@H](CCC(N)=O)C(=O)NCC(=O)N[C@H](C(=O)N[C@@H](CC(=O)O)C(=O)N[C@@H](Cc1ccc(O)cc1)C(=O)O)[C@@H](C)O [Epitope Y162] (H-ELIRQGTDY-OH; N-terminus and C-terminus assumed) | – | – | 5 to 15 µM | > 15 µM | > 15 µM | > 15 µM | < 5 µM | 5 to 15 µM | – | – | – |
| CC[C@H](C)[C@H](NC(=O)[C@@H](NC(=O)[C@H](CCC(=O)O)NC(=O)[C@H](CCC(=O)O)NC(=O)[C@@H](N)Cc1c[nH]cn1)[C@@H](C)O)C(=O)N[C@@H](Cc1ccc(O)cc1)C(=O)N[C@@H](CC(N)=O)C(=O)N[C@@H](CC(C)C)C(=O)N[C@@H](CC(C)C)C(=O)O [Epitope Y199] (H-HEETIYNLL-OH; N-terminus and C-terminus assumed) | – | – | 5 to 15 µM | 5 to 15 µM | – | < 5 µM | > 15 µM | – | 24.9% | 44.1% | – |
| C[C@@H](O)[C@H](NC(=O)CNC(=O)[C@H](CCC(N)=O)NC(=O)[C@@H](N)CCCNC(=N)N)C(=O)N[C@@H](CC(=O)O)C(=O)N[C@@H](Cc1ccc(O)cc1)C(=O)N[C@@H](CCCCN)C(=O)N[C@@H](Cc1c[nH]cn1)C(=O)N[C@@H](Cc1c[nH]c2ccccc12)C(=O)O [Epitope Y222] (H-RQGTDYKHW-OH; N-terminus and C-terminus assumed) | – | – | – | > 15 µM | 5 to 15 µM | – | – | – | – | – | – |
| C[C@H](NC(=O)[C@H](CO)NC(=O)[C@H](CO)NC(=O)[C@@H](N)Cc1ccc(O)cc1)C(=O)N[C@@H](CC(N)=O)C(=O)N[C@@H](CC(N)=O)C(=O)N[C@@H](CS)C(=O)N[C@H](C(=O)N[C@@H](Cc1ccccc1)C(=O)O)[C@@H](C)O [Epitope Y247] (H-YSSANNCTF-OH; N-terminus and C-terminus assumed) | – | – | < 5 µM | 5 to 15 µM | > 15 µM | > 15 µM | 5 to 15 µM | > 15 µM | 44.6% | 86.4% | > 15 µM |
| CC(C)C[C@H](NC(=O)[C@H](CC(=O)O)NC(=O)[C@H](CCC(N)=O)NC(=O)[C@@H](NC(=O)[C@@H](N)CO)[C@@H](C)O)C(=O)N[C@@H](Cc1ccccc1)C(=O)N[C@@H](CC(C)C)C(=O)N1CCC[C@H]1C(=O)N[C@@H](Cc1ccccc1)C(=O)O [Epitope Y249] (H-STQDLFLPF-OH; N-terminus and C-terminus assumed) | – | – | – | > 15 µM | 5 to 15 µM | – | – | – | – | – | > 15 µM |
| CC(C)[C@H](NC(=O)[C@@H](N)Cc1ccccc1)C(=O)N[C@@H](CO)C(=O)N[C@@H](CC(N)=O)C(=O)NCC(=O)N[C@H](C(=O)N[C@@H](Cc1c[nH]cn1)C(=O)N[C@@H](Cc1c[nH]c2ccccc12)C(=O)N[C@@H](Cc1ccccc1)C(=O)O)[C@@H](C)O [Epitope Y250] (H-FVSNGTHWF-OH; N-terminus and C-terminus assumed) | – | – | – | > 15 µM | > 15 µM | > 15 µM | – | > 15 µM | – | – | – |
| CC(C)[C@H](NC(=O)CNC(=O)[C@H](Cc1c[nH]cn1)NC(=O)[C@@H]1CCCN1C(=O)[C@H](C)NC(=O)[C@H](CO)NC(=O)[C@H](CCC(N)=O)NC(=O)[C@@H]1CCCN1C(=O)[C@@H](N)Cc1ccccc1)C(=O)O [Epitope Y281] (H-FPQSAPHGV-OH; N-terminus and C-terminus assumed) | – | – | – | > 15 µM | 5 to 15 µM | – | – | > 15 µM | – | – | > 15 µM |
